The values below come from US10342430B2, “Device and method for in vivo noninvasive magnetic manipulation of circulating objects in bioflows” (BioVentures, LLC, priority 2007, dated 2019).

Data set [1] has as its system B16F10 cultured mouse melanoma cells. The data set can be described thus: Trypan blue exclusion assay after ICG labeling of melanoma cells. Conditions: staining 30 min at 37° C., 5% CO2; data not shown. Type of data set: cell-based. From the text: B16F10 cultured mouse melanoma cells (ATCC, Rockville, Md.) were used in this experiment. The cells were maintained using standard procedures (Ara et al. 1990, Weight et al. 2006, Zharov et al. 2006), including serial passage in phenol-free RPMI 1640 medium (Invitrogen, Carlsbad, Calif.) supplemented with 10% fetal bovine serum (FBS, Invitrogen). For comparison to the detection of unlabelled melanoma cells, the endogenous cell absorption was increased by staining with ICG (Akorn Inc., USA), a strongly absorbent dye in the NIR range, for 30 min at 37° C. and in the presence of 5% CO2.

Data set [2] can be described thus: In vivo PAFC monitoring of Lymphazurin in blood circulation (ear microvessel) after tail vein injection. Further details: species or system mouse. Conditions: 200 μl of 1% solution into tail vein; 50-μm ear microvessel; 650 nm. From the text:
In this experiment, a prototype PAFC system was used to detect Lymphazurin circulating in the blood vessels of a mouse ear.
The prototype PAFC system was built on the platform of an Olympus BX51 microscope (Olympus America, Inc.) and a tunable optical parametric oscillator (OPO) pumped by a Nd:YAG laser (Lotis Ltd., Minsk, Belarus). […] Laser energy was directed to the blood vessels using a conventional lens, or an optical fiber. PA waves emitted by the cells were detected by ultrasound transducers (unfocused Panametrics model XMS-310, 10 MHz; focused cylindrical Panametrics model V312-SM, 10 MHz, focused lengths of 6 mm, 12 mm, and 55 mm; and customized resonance transducers), and the ultrasound transducer outputs were conditioned by an amplifier (Panametrics model 5662, bandwidth 50 kHz-5 MHz; Panametrics model 5678, bandwidth 50 kHz-40 MHz; customized amplifiers with adjustable high and low frequency boundaries in the range to 50-200 KHz and 1-20 MHz, respectively; resonance bandwidth of 0.3-1.0 MHz). The amplifier output signals were recorded with a Boxcar data acquisition system (Stanford Research Systems, Inc.) and a Tektronix TDS 3032B oscilloscope, and were analyzed using standard and customized software. […] The signals from the oscilloscope screen were recorded with a digital camera (Sony, Inc.) and video camera (JVC, Inc.). […]

Consider `CC1(C)C(/C=C/C=C/C=C/C=C2\N(CCCCS(=O)(=O)O)c3ccc4ccccc4c3C2(C)C)=[N+](CCCCS(=O)(=O)[O-])c2ccc3ccccc3c21` [ICG, Indocyanine Green], for which the toxicity after labeling entry in data set [1] is “No toxicity was observed”. Consider `CCN(CC)c1ccc(C(=C2C=CC(=[N+](CC)CC)C=C2)c2cc(S(=O)(=O)[O-])ccc2S(=O)(=O)[O-])cc1.[Na+]` [Lymphazurin, Isosulfan Blue], for which, in data set [2], the “clearance of Lymphazurin from the blood” value was found to be 50 min.
